The source of these data is patent US5428048A, “Aryl-N-hydroxyureas as inhibitors of 5-lipoxygenase and anto-arteriosclerotic agents” (American Home Products Corporation, priority 1993, dated 1995).

As usually defined, the IC50 is the concentration that inhibits the measured activity by half. The term inhibition denotes the relative decrease from the control value, in per cent.

For one assay, the system named is Low Density Lipoprotein. As to the kind of experiment: Inhibition of Copper Ion Mediated Oxidation of Low Density Lipoprotein. The following applies: Cu+2 mediated oxidation of rabbit or monkey LDL, 37° C., 90 minutes, 532 nm. In kind it is biochemical. The procedure:
5. Inhibition of Copper Ion Mediated Oxidation of Low Density Lipoprotein
In this in vitro assay, the inhibition of Cu^+2 mediated oxidation of rabbit or monkey LDL by an invention compound is determined spectrophotometricallly. Oxidation of LDL results in the formation of LDL-diene which absorbs light at 532 nm. Inhibition of oxidation of LDL leads to a decrease in absorbance at 532 nm.
Rabbit or monkey LDL is prepared according to the procedures of Havel, Eder and Gragdon, "The Distribution and Chemical Composition of Ultracentrifugally Separated Lipoproteins in Human Serum,: J. Clin. Invest. 34, 1345-1353 (1955) and Parhtasarathy, Wieland and Steriberg, "A Role for Endothelial Cell Lipoxygenase in the Oxidative Modification of Low Density Lipoprotein," Proc. Natl. Acad. Sci. USA 86, 1046-1050 (1989). Test compound solutions are prepared by dissolving the invention compounds in ethanol at concentrations up to 248 μM. The medium used is Dulbecco's phosphate buffered saline containing 0.5 mg/ml bovine serum albumin. For standards, 0 to 10 μl of an aqueous solution of 1,1,3,3-tetraethoxypropane (1 μmol/ml H2 O) in 4.1 ml of medium is used.
Test compound solution ([…]) is added to 4 ml of medium in incubation tubes. To each tube is added 10 μl of LDL solution and 25 μl of aqueous copper sulfate solution (1.32 mg/ml H2 O). The tubes are incubated at 37° C. for 90 minutes and the oxidation reaction quenched by addition of 1 ml of thiobarbituric acid solution (0.67% in 50% acetic acid). The tubes are heated at 90° C. for 1 hour, then chilled in an ice bath and the chromophore extracted into 2 ml of n-butanol. Absorbence is read at 532 nm and the results are reported as nmols of malondialdehyde equivalents.
Significant differences (p<0.05) are determined by the Dunnett T-test or by the Student-Newman-Keuls Test for significant differences between means. The assay is conducted using several concentrations [I] of the inhibitor test compounds. The LDL solution concentrations at different experiments were either 1.5 mg/ml, 2.5 mg/ml or 10.3 mg/ml. The IC50 is determined by non-linear regression, plotting log [I] vs. % inhibition. (Reference: K. Yagi, Biochemical Medicine 15,212-216 (1976)).

The subject of a further assay is Lipoxygenase. In words: Ex-Vivo Measurement of Lipoxygenase Inhibition in Orally Dosed Rats (LTB4 in A23187-stimulated blood). On the set-up: species or system Male Sprague Dawley rats. The settings on record: ex vivo rat, p.o., pretreatment 3 hr. The procedure:
2. […] After an interval of 3 or 6 hours, the rats were anesthetized with metofane (n =4/group) and blood collected in heparinized tubes. White blood cell counts and differentials were made. One ml of blood from each animal was placed in a 5 ml plastic tube in a shaker bath at 37° C. A23187 at a final concentration of 10 μM was added to the blood and the blood vortexed and incubated for 15 min at 37° C. with gentle shaking. Incubation was terminated by vortexing sample and centrifuging immediately at 1200 xG for 15 min at 4° C. The plasma was transferred to 15 ml plastic tubes each containing 8 ml of methanol to precipitate protein followed by vortexing. The samples were stored at -70° C. overnight and the next day the samples were centrifuged at 800 xG for 15 min to pellet the precipitate. The samples were dried in a Savant SpeedVac Concentrator Model SVC 200H and reconstituted to the original volume with cold RIA or ELISA buffer. The reconstituted samples were stored at -70° C. until assayed. The assay for LTB4 was perforated according to the directions of the [^3 H]RIA kit or ELISA kit (Seragen). The total metabolite level in 1 ml of blood is calculated and reported as ng/10^6 neutrophils. Significance is determined by a one-way analysis of variance with LSD comparisons to control (p<0.05).

For a further assay, the target named is T1, 5-Lipoxygenase (Homo sapiens, UniProt P09917).
T1 construct: endogenous in cells; host or cells: whole blood of male human donors (results per 10^6 neutrophils)
T1 sequence (P09917 1-674): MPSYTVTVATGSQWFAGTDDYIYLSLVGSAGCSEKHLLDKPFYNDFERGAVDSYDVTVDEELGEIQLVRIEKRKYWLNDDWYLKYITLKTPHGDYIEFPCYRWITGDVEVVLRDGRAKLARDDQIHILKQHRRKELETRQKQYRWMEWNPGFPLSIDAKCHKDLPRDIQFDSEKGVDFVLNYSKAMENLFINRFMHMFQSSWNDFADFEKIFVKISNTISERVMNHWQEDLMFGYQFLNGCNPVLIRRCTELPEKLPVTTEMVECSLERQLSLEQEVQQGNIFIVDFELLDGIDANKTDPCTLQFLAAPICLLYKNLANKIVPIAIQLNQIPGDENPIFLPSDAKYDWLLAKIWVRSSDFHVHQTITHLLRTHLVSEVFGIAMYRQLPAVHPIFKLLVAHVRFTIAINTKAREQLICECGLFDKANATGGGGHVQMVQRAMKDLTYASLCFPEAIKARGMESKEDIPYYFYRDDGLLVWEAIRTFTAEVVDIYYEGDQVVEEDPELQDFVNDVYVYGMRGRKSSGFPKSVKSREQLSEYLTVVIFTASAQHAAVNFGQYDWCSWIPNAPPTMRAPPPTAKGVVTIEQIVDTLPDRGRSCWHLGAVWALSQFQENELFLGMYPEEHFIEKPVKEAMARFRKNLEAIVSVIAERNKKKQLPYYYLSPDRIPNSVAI
In words: Inhibition of 5-Lipoxygenase in Human Whole Blood (ionophore A23187-stimulated LTB4). In kind it is cell-based. How it is done: 1. Inhibition of 5-Lipoxygenase in Human Whole Blood
Blood is obtained in 50-100 ml quantities from male donors. White blood cell counts and differentials are made. Two ml of blood are placed in a 15 ml polypropylene test tube. Test compounds are solubilized in dimethylsulfoxide and diluted in 1:10 in 10% bovine serum albumin in phosphate buffered saline, pH 7.4 resulting in a final dimethylsulfoxide concentration of 0.1% in the blood. Then, solutions of test compounds are added to the blood in a shaking water bath at 37° C. for 10 minutes prior to the addition of 30 μM calcium ionophore (A23187, Sigma). After ionophore administration, whole blood samples are mixed and incubated for 20 minutes at 37° C. in a shaking water bath. Incubation is terminated by placing samples in an ice bath and immediately adding ethylene glycol-bis-(β-aminoethyl ether)-N, N,N',N'-tetraacetic acid (10 mM). Samples are mixed and centrifuged at 1200×g for 15 minutes at […]. Preparation of samples for evaluation by RIA or ELISA is carded out by the following protocol. Plasma is removed from sample tubes, placed in 15 ml polypropylene test tubes containing 8 ml methanol, and then vortexed to precipitate protein. Samples are stored at -70° C. overnight. The next day, samples are centrifuged at 200×g for 15 minutes at 4° C. to pellet the precipitate. Samples are dried in a Savant SpeedVac Concentrator, Model SVC 200H, reconstituted to original volume with ice cold RIA or ELISA buffer, and stored at -70° C. until assayed. The assay for eicosanoids (LTB4, TxB2, and PGE2) is performed as described by the manufacturer of the [^3 H]-RIA kit or ELISA kit (LTB4 -Amersham, TxB2 and PGE2 - Caymen Chemical).
The total eicosanoid level in 2 ml of blood is calculated and reported as ng/10^6 neutrophils. Significance is determined by a one-way analysis of variance with least significant difference (LSD) comparisons to control (p≤0.05) and IC50 's (μM) are determined by regression analysis (Finney, 1978). Drug effects are expressed as percent change from control values.

A further assay deals with LTB4 Synthesis. In words: Reverse Passive Arthus Reaction (pleurisy, LTB4 in pleural exudate). In kind it is in vivo, male Lewis rats. The following applies: 25 mg/kg p.o. How it is done:
3. Reverse Passive Arthus Reaction
A reverse passive Arthus reaction is induced in the pleural cavity of male Lewis rats (150°-200 g; fasted overnight prior to use) by the intravenous administration of bovine serum albumin (BSA; 4 mg/0.2 ml) followed 30 minutes later by the injection of rabbit anti-BSA (1 mg/0.2 ml; lyophilized IgG fraction; Organon Teknika, West Chester, Pa.) into the right pleural space under halothane anesthesia. Drugs or vehicle (0.5% Tween-80) control are administered orally in a volume of 1 ml/100 g body weight at 1 hour prior to the anti-BSA. Animals are sacrificed at either the time of peak eicosanoid production (i.e. 5 minutes after anti-BSA for immunoreactive TxB2, 10 minutes for immunoreactive LTB4, 20 minutes for immunoreactive LTC4) or at the time of peak neutrophil infiltration (4 hours after anti-BSA) by CO2 inhalation. The pleural cavity is then exposed, the fluid exudate removed by gentle vacuum aspiration and the volume of exudate is recorded. For the determination of cellular infiltration, the pleural cavity is rinsed with 3 ml of 0.1% EDTA in sterile saline, and the recovered wash is pooled with the exudate. Cell number is determined on a model ZBI Coulter counter. For determination of eicosanoid production, undiluted pleural exudate is microfuged and the supernatant is extracted with ethanol (8-10 times volume). Extracts are either stored at -20° C., or are evaporated to dryness under a stream of N2 and reconstituted in radioimmunoassay (RIA) buffer.
Eicosanoids are quantitated by RIA according to the procedure specified by the RIA kit manufacturer (Advanced Magnetics, Cambridge, MA). Briefly, 100 μl of ^3 H-labeled eicosanoid and 100 μl of specific antibody ,are sequentially added to 100 μl of extracted pleural exudate in BGG-phosphate buffer which contains 0.01M phosphate, 0.1% bovine gamma globulin and 0.1% sodium azide at pH 7.0. Antibody-bound eicosanoid is separated from unbound eicosanoid by the addition of 750 μl of dextran (0.4%)-coated charcoal (Norit A) containing 0.1% sodium azide. The mixture is centrifuged at 2000 RPM at 5° C. for 15 minutes to pellet the charcoal and adsorbed unbound eicosanoid. Antibody-bound labeled eicosanoid is quantitated by counting in a liquid scintillation counter, and is correlated to concentration by a standard curve.

Assay [1] relates to LDL. The settings on record: in words; cited from earlier work.
Assay [2] relates to LDL. The following applies: in words; cited from earlier work. The source holds these as a separate data set.
The next assay concerns atherosclerotic lesions. The settings on record: WHHL rabbits, in words; cited from earlier work.
The test system of assay [3] is LT-dependent bronchoconstriction. In words: Inhibition of Bronchoconstriction in Guinea Pigs Induced by Exogenously Administered Antigen. The class given is in vivo, Male guinea pigs. The following applies: 10 mg/kg i.v. The procedure: 4. Inhibition of Brochoconstriction in Guinea Pigs Induced by Exogenously Administered Antigen
Male guinea pigs (Charles River, Wilmington, Mass.) were sensitized 3-4 weeks prior to antigen challenge by administration of 2 i.m. injections of ovalbumin, 1 into each hind limb (35 mg total). Sensitized animals (500-600 g) were fasted overnight prior to experimentation. Conscious animals were then dosed p.o. with drug or vehicle alone (0.5% Tween 80 in H2 O) at the indicated times prior to antigen challenge, or anesthetized animals were dosed i.v. with drug or vehicle alone (DMSO) 5 min prior to antigen challenge. Animals were anesthetized by urethane (2.8 g/kg i.p.). A carotid artery and jugular vein were cannulated to allow for the monitoring of blood pressure and the administration of drugs, respectively. The trachea was then cannulated and connected to a Harvard Apparatus rodent ventilator (S. Natick, Mass.). Spontaneous respiration was abolished by the administration of succinylcholine (2.5 mg/kg i.v.). The animals were then ventilated with room air at a rate of 65 breaths per min. Airway inflation pressure was measured using a Statham pressure transducer (Gould Instruments, Cleveland, Ohio) connected to the tracheal cannula via a side-arm and recorded on a Grass Instruments recorder (Quincy, Mass.). The tidal volume (approximately 10 cc/kg) was adjusted to give a baseline inflation pressure of 8-10 cm H2 O at end inspiration. Animals were then allowed 20 min to stabilize.
Following the stabilization period, animals were given i.v. injections of pyrilamine (5 mg/kg), propranolol (0.1 mg/kg) and indomethacin (10 mg/kg) at 15, 10 and 5 min, respectively, prior to antigen challenge. This pretreatment results in an LT-dependent bronchoconstriction following antigert challenge, which was accomplished by i.v. administration of ovalbumin (10 mg/kg). Only one bronchoconstriction per animal was induced. End-inspiratory inflation pressure (in cm H2 O over baseline) was measured at 5 min post-antigen challenge. A mean value and standard error for the % inhibition of control bronchoconstriction in each drug-treated group was then calculated.

As for `Cc1oc(-c2cc(C(C)(C)C)c(O)c(C(C)(C)C)c2)nc1CCOc1ccc(CN(O)C(N)=O)cc1` [Example 10], the IC50 in the assay on Low Density Lipoprotein turned out to be 180 nM. Also, the “% Inhibition of LTB4” value with Lipoxygenase (dose 10 (mg/kg)) was 44%. The same compound returned an inhibition at 10 µM against 5-Lipoxygenase (10 μM) of 83%.
In the case of `Cc1oc(-c2ccccc2)nc1CCOc1cccc(CN(O)C(N)=O)c1` [Example 2, 1-Hydroxy-1-[3-[2-(5-methyl-2-phenyl-oxazol-4-yl)-ethoxy]-benzyl]-urea], the “% Inhibition of LTB4” value in the assay on Lipoxygenase (dose 25 (mg/kg)) amounted to 21%. For the same compound, the inhibition at 1 µM at 5-Lipoxygenase worked out at 51%. For the same compound, the “% Inhibition LTB4 Synthesis” value with LTB4 Synthesis was found to be 53%.
As for `CC(C)(Sc1cc(C(C)(C)C)c(O)c(C(C)(C)C)c1)Sc1cc(C(C)(C)C)c(O)c(C(C)(C)C)c1` [Probucol], the “inhibition of Cu+2 mediated oxidative modification of LDL” value in the assay on LDL [1] is “inhibits both cell mediated and Cu^+2 mediated oxidative modification of LDL”. Further, the “inhibition of cell mediated oxidative modification of LDL” value with LDL [2] is “inhibits both cell mediated and Cu^+2 mediated oxidative modification of LDL”. Besides, the “inhibition of formation of atherosclerotic lesions” value with atherosclerotic lesions is “shown to inhibit the formation of atherosclerotic lesions in WHHL rabbits”.
With `Cc1oc(-c2cccc(F)c2)nc1CCOc1ccc(CN(O)C(N)=O)cc1` [Example 7], the “% Inhibition of LTB4” value in the assay with Lipoxygenase (dose 10 (mg/kg)) was found to be 79%. Further, the inhibition at 1 µM on 5-Lipoxygenase was 63%. In addition, the “% Inhibition LTB4 Synthesis” value with LTB4 Synthesis turned out to be 38%.
The compound `NC(=O)N(O)Cc1ccc(OCCc2csc(-c3ccc(C(F)(F)F)cc3)n2)cc1` [Example 19, 1-Hydroxy-1-[4-[2-[2-(4-trifluoromethyl-phenyl)-thiazol-4-yl]-ethoxy]-benzyl]-urea] returned an inhibition at 1 µM at 5-Lipoxygenase of 57%. In addition, in assay [3], the “Bronchoconstriction % Inhibition” value is listed as 21%.
